SMILES strings stand for the structures.

For data set [1], the system named is Human umbilical vein endothelial cell. Briefly: In Vitro Angiogenesis Assay (morphogenesis / tube formation on Matrigel, ECMatrix kit). Type of data set: cell-based. The arrangement: key to Results: Individual cells, well separated (+++++); Cells begin to migrate and align themselves (++++); Cells begin to line but not sprouting (+++); Visible Sprouting (++); Closed polygons begins to form (+). The settings on record: for Results: score of the extent of cellular networks, HUVECs 10^4 cells/well, inhibitors 1mM and 10 mM, 8 hours incubation at 37 °C, higher score = greater inhibition of angiogenesis. Here is the method:
Human umbilical vein endothelial cell was purchased from Cambrex Co. (East Rutherford, New Jersey) and maintained in EGM (Endothelial Growth Medium) supplemented with 2% FBS, 0.1% EGF, 0.1% Hydrocortisone, 0.1% GA-1000 and 0.4% BBE.
The morphogenesis assay on Matrigel was performed according to the manufacturer's instructions (Chemicon International). The ECMatrix™ kit consists of laminin, collagen type IV, heparan sulfate, proteoglycans, entactin and nidogen. It also contains various growth factors (TGF-β, FGF) and proteolytic enzymes (plasminogen, tPA, MMPs) that are normally produced in EHS tumors. The incubation condition was optimized for maximal tube-formation as follows: 50µl of EC Matrix™ was suitably diluted in the ratio 9:1 with 10X diluent buffer and used for coating the 96-well plate. The coated plates were incubated at 37° C for 1 hr. to allow the Matrix solution to solidify. In the meantime the HUVECs that were cultured for 24 hours in EGM with 2% FBS was trypsinised and resuspended in the growth media and the cells were counted. After 1 hr. pre-incubation of the plate with Matrix solution, the HUVECs were plated at 10^4 cells/well in the absence or in the presence of different VEGFR inhibitors (1mM and 10 mM). After 8 hours incubation at 37 °C, the cell three-dimensional organization (cellular network structures) was examined under an inverted photomicroscope. Each treatment was performed in triplicate.
Activated endothelial cells form cellular networks (mesh like structures) resembling capillary tubes sprouting into the stromal space. The formation of these cellular networks is a dynamic process, which started migration and alignment of cells followed by the development of capillary tubes like structures, sprouting of new branches and finally the formation of the cellular networks. Although this in vitro angiogenesis kit is designed only as a qualitative assay, we have made an attempt to quantitate the degree of angiogenesis using a scoring method. The scoring was based on the extent of the cellular networks that were observed as follows: • Individual cells, well separated (+++++) • Cells begin to migrate and align themselves (++++) • Cells begin to line but not sprouting (+++) • Visible Sprouting (++) • Closed polygons begins to form (+).
According to our qualitative assessment, the higher the scoring the greater the efficiency of the compound for inhibiting endothelial cell mediated angiogenesis.

For another data set, the system named is VEGFR. Briefly: Assay of VEGF Receptor Tyrosine Kinase Activity (VEGFR immunoprecipitated from cell lysate, non-radioactive PTK ELISA). The format is biochemical. As to conditions: VEGFR immunoprecipitated from cell lysate with VEGFR specific antibody, read-out: IC50 for inhibiting VEGFR kinase. From the text: Protein Tyrosine Kinases (PTKs) perform a critical role in signal transduction pathways that control cell proliferation, differentiation, metabolism, and apoptosis. Phosphorylation of proteins by PTKs is essential for the regulation of these biological mechanisms and defects in these pathways may result in a number of human diseases, including cancer. The important aspect of these enzymes in cellular regulation is accentuated by the fact that for a large number of kinases a corresponding viral oncogene product has been identified. […] CHEMICON's non-radioactive Tyrosine Kinase Activity Assay provides a simple, convenient and specific method for quantification and comparative determination of a wide range of PTKs. […]
The non-radioactive Tyrosine Kinase Activity Assay Kit consists of a synthetic Biotinylated Peptide Substrate, a Biotinylated Phosphopeptide, purified Phosphotyrosine specific monoclonal antibody conjugated to horseradish peroxidase (HRP) and other components required to perform 96 ELISA-based assays. […] The quantity of phosphate incorporated into the tyrosine kinase substrate is determined utilizing the phosphopeptide standard curve. […] The assay reaction would be terminated by the addition of 100 µl of stop solution and finally, the absorbance was measured on a standard microplate reader at 450nm. […]

Another data set concerns GI-101A. Briefly: Cytotoxicity towards breast carcinoma cell line GI-101A. The format is cell-based. As to conditions: GI-101A breast carcinoma cell line.
In another data set the test system is MCF-7. Briefly: Cytotoxicity towards breast carcinoma cell line MCF-7. Type of data set: cell-based. As to conditions: MCF-7 breast carcinoma cell line.

With `COc1ccc(NCC(O)Cn2cnc3c2c(=O)n(C)c(=O)n3C)cc1` (centres unmarked) [Example 1], in data set [1] (Homo sapiens, Endothelial cell, estimated, read-out: EC50 value for anti-antigenic effect), the half-maximal effective concentration (EC50) is 250 nM. Besides, in data set [1], the Results result is given as “+++++”. Further, the IC50 in the data set with VEGFR amounted to 400 nM. Also, the cytotoxicity result in the data set on GI-101A and with MCF-7 was “produced cytotoxicity” in each case.

Turning to `CCCCCCCCCCCCCCCCOc1ccc(C(NNS(=O)(=O)c2cccc(C(=O)O)c2)N2CCCCC2)cc1` (centres unmarked) [Example 2], the Results entry in data set [1] is “++++”.

On to `CCCCCCCCCCCCCCCCCCOc1ccc(C(=O)CC(=O)Nc2ccc(Sc3cccc(C(=O)O)c3)c(C(=O)O)c2)cc1` [Example 5], for which the Results result in data set [1] was “+++”.

As to `CCC(CNCCO)Nc1nc2c(c(=O)n(C)c(=O)n2C)n1Cc1ccccc1` (centres unmarked) [Example 7], the Results result in data set [1] is “++”.

The record behind these values is patent EP2271341B1, “SPECIFIC INHIBITORS FOR VASCULAR ENDOTHELIAL GROWTH FACTOR RECEPTORS” (Nova Southeastern University, priority 2008, dated 2009).
